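Values below derive from 48-hour exposures of cells grown in 96-well plates, with endpoints linearly interpolated between the two concentrations bracketing the appropriate inhibition level. Abbreviation: GI50, concentration required for 50% inhibition of growth.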 The source made the active and inactive calls. No stated cut-off is given here; in the data, active = GI50 up to about 1.1 µM and inactive = higher.
Tests used:
Experiment in all cases: growth of human tumour cells (NCI), 48 h
[1] = test system: NCI-H522
[2] = test system: SF-268
[3] = test system: SK-MEL-2
[4] = test system: IGROV-1
[5] = test system: SNB-19
[6] = test system: HT-29
[7] = test system: M14
[8] = test system: RPMI-8226
[9] = test system: 786-0
[10] = test system: UACC-62
[11] = test system: CCRF-CEM
[12] = test system: SK-MEL-5
[13] = test system: MDA-MB-435
[14] = test system: TK-10
[15] = test system: MCF7
[16] = test system: COLO 205
[17] = test system: HL-60
[18] = test system: UO-31
[19] = test system: A498
[20] = test system: OVCAR-4

Measured: GI50

Cc1nc2cc(Cl)c(N)cc2[nH]1
inactive: [1] > 100 µM | [2] > 100 µM | [3] > 100 µM | [4] > 100 µM | [5] > 100 µM | [6] > 100 µM | [7] > 100 µM | [8] > 100 µM | [9] > 100 µM | [10] > 100 µM | [11] > 100 µM | [12] > 100 µM | [13] > 100 µM | [14] > 100 µM | [15] > 100 µM | [16] > 100 µM | [17] > 100 µM | [18] > 100 µM | [19] > 100 µM

Cn1c2ccccc2c2c(=O)[nH]c(=O)[nH]c21
inactive: [1] > 100 µM | [2] > 100 µM | [3] > 100 µM | [4] > 100 µM | [5] > 100 µM | [6] > 100 µM | [7] > 100 µM | [8] > 100 µM | [9] > 100 µM | [10] > 100 µM | [11] > 100 µM | [12] > 100 µM | [13] > 100 µM | [14] > 100 µM | [15] > 100 µM | [16] > 100 µM | [17] > 100 µM | [18] > 100 µM | [19] > 100 µM

COc1cc(O)c2c(=O)c(OC)c(-c3ccc4c(c3)OCO4)oc2c1
inactive: [1] 6.53 µM | [2] 4.31 µM | [3] 59.7 µM | [4] > 52 µM | [5] 5.66 µM | [6] > 100 µM | [7] > 85.1 µM | [8] > 100 µM | [9] 15.3 µM | [10] 78.9 µM | [11] > 100 µM | [12] > 35.6 µM | [13] > 100 µM | [14] 36.7 µM | [15] > 100 µM | [16] > 100 µM | [17] > 100 µM | [18] > 100 µM | [19] 38.5 µM

O=c1oc2ccccc2cc1-c1nc2ccc([N+](=O)[O-])cc2o1
inactive: [1] > 100 µM | [2] > 100 µM | [3] > 100 µM | [4] > 100 µM | [5] 30.2 µM | [6] 67.6 µM | [7] > 100 µM | [8] > 100 µM | [9] > 100 µM | [10] > 100 µM | [11] > 100 µM | [12] > 100 µM | [13] > 100 µM | [14] > 100 µM | [15] 83.8 µM | [16] > 100 µM | [17] > 100 µM | [18] > 100 µM | [19] > 100 µM

O=C1CC(c2cccc([N+](=O)[O-])c2)C2(C(=O)NC(=O)NC2=O)C(c2cccc([N+](=O)[O-])c2)C1 (centres undefined)
inactive: [1] 78.2 µM | [2] 19.7 µM | [3] > 100 µM | [4] 60.7 µM | [20] > 100 µM | [5] > 100 µM | [6] 75.9 µM | [7] > 100 µM | [8] 31.5 µM | [9] > 100 µM | [10] 98.4 µM | [11] 32.9 µM | [12] > 100 µM | [13] > 100 µM | [15] 17.3 µM | [16] > 100 µM | [17] > 100 µM | [18] 88.3 µM | [19] > 100 µM

Clc1ccccc1-c1nc(-c2ccncc2)no1 [PIFEXOLE]
inactive: [1] 25.8 µM | [2] 59.6 µM | [3] > 100 µM | [4] 71.3 µM | [20] 59.8 µM | [5] 96.2 µM | [6] 66.1 µM | [7] 62.2 µM | [8] 44.2 µM | [9] > 100 µM | [10] 73.6 µM | [12] 22.9 µM | [13] 48.6 µM | [14] 42.8 µM | [15] 30 µM | [16] 40.8 µM | [17] 13.4 µM | [18] 47.4 µM | [19] 37.6 µM

Source: ChEMBL document CHEMBL1201862, “PubChem BioAssay data set” (2004)
